Patent US20260364184A1, “COMPOUND BASED ON OXOISOINDOLINYL-SUBSTITUTED TETRAHYDROPYRIMIDINE-DIONE AND USE THEREOF” (GLUETACS THERAPEUTICS (SHANGHAI) CO., LTD., priority 2023, published 2026)
Read-outs that look alike come from different tables or passages of the source. Each block holds one compound with its values, some of them ahead of it.

How the values were obtained:
Type in all cases: cell-based
[1] = Inhibition of RPMI-8226 cell proliferation (CellTiter luminescent viability); details: Homo sapiens, read-out: Inhibition Rate at 10 nM (%)
[2] = tested on: Human B-Cell Lymphoma Cells (RPMI-8226); assay: as above; details: RPMI-8226, 500 nM, read-out: Inhibition Rate at 500 nM (%)
[3] = tested on: Human lung cancer cell line (H292); assay: Inhibition of H292 cell proliferation (CellTiter luminescent viability); details: NCI-H292, Table IM1, CDK9 inhibitor-based, 96 hours; for inhibition at 0.01 µM: H292, 10 nM, read-out: Inhibition Rate at 10 nM (%); for inhibition at 0.5 µM: H292, 500 nM, read-out: Inhibition Rate at 500 nM (%)
Description: The tumor cells used herein were cultured in a cell culture medium listed in table 3 at 37 °C in an incubator with 5% CO2. Prior to experimentation, all cell lines used were correctly identified by STR profiling, and tested negative for mycoplasma contamination using a mycoplasma detection kit through routine screenings.
The IC50 values of the compounds of the present disclosure (including the compounds in Table 1, Table 2, and Examples 1-468) were determined using the CellTiter-Meiluncell Luminescent Cell Viability Assay Kit from Dalian Meilun Biotech Co., Ltd. The detailed procedure is as follows: Tumor cells were seeded in 96-well cell culture plates at the densities specified in Table 4. On the following day, the test compounds of the present disclosure were subjected to serial dilution. The dilution can be performed according to one of the following two methods: • (1) The first dilution method: The test compounds of the present disclosure (including the compounds in Table 1, Table 2, and Examples 1-468) were subjected to 5-fold serial dilutions starting from a highest concentration of 2000 μM, resulting in a total of 9 concentrations from high to low (2000, 400, 80, 16, 3.2, 0.64, 0.128, 0.0256, 0.00512 μM). Subsequently, 0.5 μL of the test compound dilution was transferred into the 96-well plate containing the cells, with each well containing 100 μL of cell culture medium. […] Into the 96-well plate, the diluted test compounds and corresponding detection reagents were added, resulting in final test compound concentrations of 500 nM and 10 nM, respectively. The experimental procedure is described below using the diluted 2 μM test compound as an example.
0.5 μL of the aforementioned diluted compound of the present disclosure (including the compounds in Table 1, Table 2, and Examples 1-468) was added to the seeded cells in 100 μL of medium, yielding a final test compound concentration of 10 nM. After the cells were treated with the compounds of the present disclosure for a specified period, the cell viability assay reagent was added to the culture medium according to the kit's instructions to determine cell viability. […] All controls were treated using the same procedure as the compounds of the present disclosure. The growth inhibition curves for the compounds of the present disclosure were plotted using Prism GraphPad software, and the IC50 values were calculated therefrom.

[4] = tested on: Human Acute T Lymphoblastic Leukemia Cells (Molt-4); assay: Inhibition of Molt-4 cell proliferation (CellTiter luminescent viability); details: Homo sapiens, MOLT-4, 96 h, Table IA2, IRAK4 inhibitor-based, 96 hours; for inhibition at 0.01 µM: Molt-4, 10 nM, read-out: Inhibition Rate at 10 nM (%); for inhibition at 0.5 µM: Molt-4, 500 nM, read-out: Inhibition Rate at 500 nM (%)
IRAK4 = biological target: T1, IRAK4 (Homo sapiens, UniProt Q9NWZ3); assay: Western blot degradation of IRAK4; details: hPBMC Cell; 24 hours
T1 construct: expression of target proteins in cells; endogenous in cells
T1 sequence (Q9NWZ3 1-460): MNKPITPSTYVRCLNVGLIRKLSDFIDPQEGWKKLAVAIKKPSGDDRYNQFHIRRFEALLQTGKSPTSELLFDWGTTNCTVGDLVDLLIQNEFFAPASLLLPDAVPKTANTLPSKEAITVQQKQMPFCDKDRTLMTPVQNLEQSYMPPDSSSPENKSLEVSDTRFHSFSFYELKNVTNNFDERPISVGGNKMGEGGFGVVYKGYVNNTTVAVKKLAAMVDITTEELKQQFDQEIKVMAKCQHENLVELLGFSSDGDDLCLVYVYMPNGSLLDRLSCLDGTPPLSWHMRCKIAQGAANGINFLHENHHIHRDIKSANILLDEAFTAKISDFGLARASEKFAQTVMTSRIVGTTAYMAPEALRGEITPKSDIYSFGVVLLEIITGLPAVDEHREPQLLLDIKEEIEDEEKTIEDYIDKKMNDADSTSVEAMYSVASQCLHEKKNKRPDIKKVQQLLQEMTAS
How it was run: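 Compound-treated cells harvested; lysates denatured 5 min at 95 °C, run on SDS-PAGE, blotted to NC membrane, blocked 1 h RT, probed with antibodies. Densitometry vs DMSO → DC50; target normalised to internal control → % remaining, degradation = 1 − remaining.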

[5] = tested on: Human Multiple myeloma cell line (MM.1S); assay: Inhibition of MM.1S cell proliferation (CellTiter luminescent viability); details: Homo sapiens, MM1.S, Table IA5, IRAK4 inhibitor-based, 96 hours
How it was run: (§1)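 Cells are seeded in 96-well plates, cultured at 37 °C, 5% CO2, and treated next day with 5-fold serial compound dilutions (stock series from 2000 μM; 0.5 μL into 100 μL medium). Viability is read by CellTiter-Meiluncell luminescence after the set exposure, and IC50 is taken from growth-inhibition curves.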

[6] = tested on: Human myeloid monocytic leukemia cell line (MV-4-11); assay: Inhibition of MV-4-11 cell proliferation (CellTiter luminescent viability); details: Homo sapiens, MV4-11, Table IA3, IRAK4 inhibitor-based, 96 hours
How it was run: as §1

[7] = Table IA4, IRAK4 inhibitor-based, RPMI-8226, 10 nM, 96 hours
[8] = Table IA4, IRAK4 inhibitor-based, 96 hours

Degradation of substrate protein IRAK4 (substrate protein remaining %) (IRAK4): A (0%≤substrate protein remaining %≤80%)
SMILES: COc1cc2nn([C@H]3CC[C@H](CN4CCN(c5ccc6c(c5)C(=O)N(N5CCC(=O)NC5=O)C6=O)CC4)CC3)cc2cc1NC(=O)c1cccc(C(F)(F)F)c1 [GT-08661, N-(2-((1r,4r)-4-((4-(2-(2,4-dioxotetrahydropyrimidin-1(2H)-yl)-1,3-dioxoisoindolin-5-yl)piperazin-1-yl)methyl)cyclohexyl)-6-methoxy-2H-indazol-5-yl)-3-(trifluoromethyl)benzamide]
inhibition at 0.01 µM [4]: 15 to 20% | inhibition at 0.5 µM [4]: 15 to 20% | inhibition at 0.01 µM [1, 7]: 20 to 25% | inhibition at 0.5 µM [2, 8]: 25 to 30%

Degradation of substrate protein IRAK4 (substrate protein remaining %) (IRAK4): A (0%≤substrate protein remaining %≤80%)
SMILES: COc1cc2nn([C@H]3CC[C@H](CN4CCN(C5CCN(c6ccc7c(c6)C(=O)N(N6CCC(=O)NC6=O)C7=O)CC5(F)F)CC4)CC3)cc2cc1NC(=O)c1cccc(C(F)(F)F)n1 (stereo partly drawn) [GT-08659, N-(2-((1r,4r)-4-((4-(1-(2-(2,4-dioxotetrahydropyrimidin-1(2H)-yl)-1,3-dioxoisoindolin-5-yl)-3,3-difluoropiperidin-4-yl)piperazin-1-yl)methyl)cyclohexyl)-6-methoxy-2H-indazol-5-yl)-6-(trifluoromethyl) picolinamide]
inhibition at 0.01 µM [4]: 10 to 15% | inhibition at 0.5 µM [4]: 20 to 40% | inhibition at 0.01 µM [1, 7]: 15 to 20% | inhibition at 0.5 µM [2, 8]: 30 to 40%

Degradation of substrate protein IRAK4 (substrate protein remaining %) (IRAK4): A (0%≤substrate protein remaining %≤80%)
SMILES: O=C1CCN(N2Cc3cc(CN4CCN(c5ccc(-n6cc(NC(=O)c7coc(-c8ccnc(NCC(F)(F)F)c8)n7)c(C(F)F)n6)cc5)CC4)ccc3C2=O)C(=O)N1 [GT-05318, N-(3-(difluoromethyl)-1-(4-(4-((2-(2,4-dioxotetrahydropyrimidin-1(2H)-yl)-1-oxoisoindolin-5-yl)methyl)piperazin-1-yl)phenyl)-1H-pyrazol-4-yl)-2-(2-((2,2,2-trifluoroethyl)amino)pyridin-4-yl) oxazole-4-carboxamide]
inhibition at 0.01 µM ([5]; 10 nM, read-out: Inhibition Rate at 10 nM (%)): 10 to 15% | inhibition at 0.5 µM ([5]; 500 nM, read-out: Inhibition Rate at 500 nM (%)): 60 to 80% | inhibition at 0.01 µM [4]: 3 to 7% | inhibition at 0.5 µM [4]: 40 to 60% | inhibition at 0.01 µM ([6]; MV-4-11, 10 nM, read-out: Inhibition Rate at 10 nM (%)): 80 to 100% | inhibition at 0.5 µM ([6]; MV-4-11, 500 nM, read-out: Inhibition Rate at 500 nM (%)): 100 to 110% | inhibition at 0.01 µM [1, 7]: 20 to 25% | inhibition at 0.5 µM [2, 8]: 60 to 80%

More lines, now with the values behind:

SMILES: O=C1CCN(N2C(=O)c3ccc(N4CCC(CN5CCN(c6ccc(CC(=O)Nc7cc(C8CCC8)[nH]n7)cc6)CC5)CC4)cc3C2=O)C(=O)N1 [GT-08350, N-(5-cyclobutyl-1H-pyrazol-3-yl)-2-(4-(4-((1-(2-(2,4-dioxotetrahydropyrimidin-1(2H)-yl)-1,3-dioxoisoindolin-5-yl)piperidin-4-yl)methyl)piperazin-1-yl)phenyl)acetamide]
inhibition at 0.01 µM ([1]; RPMI-8226, 10 nM): 10 to 20% | inhibition at 0.5 µM [2]: 20 to 30% | inhibition at 0.01 µM [3]: 40 to 50% | inhibition at 0.5 µM [3]: 40 to 50%

SMILES: O=C(NC1CCNCC1)c1[nH]ncc1NC(=O)c1c(Cl)cccc1Cl [AT7519, reference compound]
inhibition at 0.01 µM ([1]; RPMI-8226, 10 nM): 0 to 5% | inhibition at 0.5 µM [2]: -20 to -15% | inhibition at 0.01 µM [3]: -5 to 0% | inhibition at 0.5 µM [3]: 5 to 10%

SMILES: COc1cc2nn([C@H]3CC[C@H](CN4CCN(c5ccc6c(c5F)C(=O)N(N5CCC(=O)NC5=O)C6=O)CC4)CC3)cc2cc1NC(=O)c1cccc(C(F)(F)F)c1 [GT-08669, N-(2-((1r,4r)-4-((4-(2-(2,4-dioxotetrahydropyrimidin-1(2H)-yl)-4-fluoro-1,3-dioxoisoindolin-5-yl)piperazin-1-yl)methyl)cyclohexyl)-6-methoxy-2H-indazol-5-yl)-3-(trifluoromethyl)benzamide]
inhibition at 0.01 µM [4]: 20 to 40% | inhibition at 0.5 µM [4]: 20 to 40% | inhibition at 0.01 µM [1, 7]: 20 to 25% | inhibition at 0.5 µM [2, 8]: 30 to 40% | Degradation of substrate protein IRAK4 (substrate protein remaining %) (IRAK4): A (0%≤substrate protein remaining %≤80%)

SMILES: N#CC1(CNc2nc(-c3cc(NC4CCN(CC5CCN(c6ccc7c(c6)C(=O)N(N6CCC(=O)NC6=O)C7=O)CC5)CC4)ncc3Cl)cs2)CCOCC1 [GT-04719, 4-(((4-(5-chloro-2-((1-((1-(2-(2,4-dioxotetrahydropyrimidin-1(2H)-yl)-1,3-dioxoisoindolin-5-yl)piperidin-4-yl)methyl)piperidin-4-yl)amino)pyridin-4-yl)thiazol-2-yl)amino)methyl)tetrahydro-2H-pyran-4-carbonitrile]
inhibition at 0.01 µM ([1]; RPMI-8226, 10 nM): 10 to 20% | inhibition at 0.5 µM [2]: 20 to 30% | inhibition at 0.01 µM [3]: 5 to 10% | inhibition at 0.5 µM [3]: 15 to 20%

SMILES: N#CC1(CNc2cccc(-c3cc(NC4CCN(Cc5ccc6c(c5)C(=O)N(N5CCC(=O)NC5=O)C6=O)CC4)ncc3Cl)n2)CCOCC1 [GT-08215, 4-(((5′-chloro-2′-((1-((2-(2,4-dioxotetrahydropyrimidin-1(2H)-yl)-1,3-dioxoisoindolin-5-yl)methyl)piperidin-4-yl)amino)-[2,4′-bipyridin]-6-yl)amino)methyl)tetrahydro-2H-pyran-4-carbonitrile]
inhibition at 0.01 µM ([1]; RPMI-8226, 10 nM): 20 to 30% | inhibition at 0.5 µM [2]: 20 to 30% | inhibition at 0.01 µM [3]: 20 to 30% | inhibition at 0.5 µM [3]: 20 to 30%

SMILES: COc1cc2nn([C@H]3CC[C@H](CN4C5CCC4CN(c4ccc6c(c4)C(=O)N(N4CCC(=O)NC4=O)C6=O)C5)CC3)cc2cc1NC(=O)c1cccc(C(F)(F)F)c1 [GT-08667, N-(2-((1r,4r)-4-((3-(2-(2,4-dioxotetrahydropyrimidin-1(2H)-yl)-1,3-dioxoisoindolin-5-yl)-3,8-diazabicyclo[3.2.1]octan-8-yl)methyl)cyclohexyl)-6-methoxy-2H-indazol-5-yl)-3-(trifluoromethyl)benzamide]
inhibition at 0.01 µM [4]: 20 to 40% | inhibition at 0.5 µM [4]: 20 to 40% | inhibition at 0.01 µM [1, 7]: 20 to 25% | inhibition at 0.5 µM [2, 8]: 30 to 40% | Degradation of substrate protein IRAK4 (substrate protein remaining %) (IRAK4): A (0%≤substrate protein remaining %≤80%)
